Data set [1] deals with hA2A (Homo sapiens, UniProt P29274). The experiment in a line: Affinity for human adenosine A2A receptor (Ki). The data set is classed as binding.
In data set [2] the target is hA1 (Homo sapiens, UniProt P30542). The experiment in a line: biochemical.
The nature of data set [3]: In-vivo metabolite study in female CD-1 mice (radio-HPLC). The following applies: for intact radiotracer in the brain / intact radiotracer in the plasma: radio-HPLC. As for the experimental part:
In the in-vivo metabolite study in female CD-1 mice after 15 min p.i. in the brain 93% (radio-HPLC, n=3, extraction yield 98%) and in the plasma 79% (radio-HPLC, n=3, extraction yield 83%) of intact radiotracers have been detected.

Data set [4] is described as follows: PET study in healthy CD-1 mice. The data set is classed as in vivo. The settings on record: striatum, 15 min p.i., n=3.
Data set [5] deals with adenosine A2A receptors (Mus musculus, UniProt Q60613). The experiment in a line: Radiotracer affinity (Kd, Bmax). The settings on record: n=5. It counts as binding.
Chain of adenosine A2A receptors (Q60613 whole entry): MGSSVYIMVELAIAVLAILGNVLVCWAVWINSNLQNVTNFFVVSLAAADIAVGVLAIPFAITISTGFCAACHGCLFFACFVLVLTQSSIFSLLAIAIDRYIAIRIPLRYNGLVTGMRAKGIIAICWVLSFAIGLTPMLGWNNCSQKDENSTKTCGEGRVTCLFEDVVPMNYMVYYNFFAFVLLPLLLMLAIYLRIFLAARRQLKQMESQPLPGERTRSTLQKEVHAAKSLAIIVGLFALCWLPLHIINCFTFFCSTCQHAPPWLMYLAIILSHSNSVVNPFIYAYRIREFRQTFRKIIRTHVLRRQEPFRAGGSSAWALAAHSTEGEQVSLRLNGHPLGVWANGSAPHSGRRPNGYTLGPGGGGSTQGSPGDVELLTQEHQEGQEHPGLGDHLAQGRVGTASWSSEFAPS
Data set [6] is described as follows: Stability of radiotracer in solutions and porcine plasma. It counts as in vitro ADME. The settings on record: 37° C., one hour. The method, then: [^18F]FLUDA has shown to be stable in a sodium chloride, PBS, n-octanol solution and in porcine plasma at 37° C. for one hour (PBS=phosphate buffered salt solution). Using the conventional “Shake-flask” method a log D74=2.01±0.07 (n=3) has been established.

Data set [7] deals with striatum (brain slices). The data set can be described thus: In-vitro autoradiography in mouse brain slices. It counts as binding. The settings on record: brain slices of mice.
[8] abbreviates: further tests, taking into account the above data, n=3.
Where [9] appears, read: female CD-1 mice, 15 min p.i., n=3.
Where [10] appears, read: repeated study (Example 6A / Comparison example 1A).

Molecules are shown by their SMILES.

Chain of hA1 (P30542 whole entry): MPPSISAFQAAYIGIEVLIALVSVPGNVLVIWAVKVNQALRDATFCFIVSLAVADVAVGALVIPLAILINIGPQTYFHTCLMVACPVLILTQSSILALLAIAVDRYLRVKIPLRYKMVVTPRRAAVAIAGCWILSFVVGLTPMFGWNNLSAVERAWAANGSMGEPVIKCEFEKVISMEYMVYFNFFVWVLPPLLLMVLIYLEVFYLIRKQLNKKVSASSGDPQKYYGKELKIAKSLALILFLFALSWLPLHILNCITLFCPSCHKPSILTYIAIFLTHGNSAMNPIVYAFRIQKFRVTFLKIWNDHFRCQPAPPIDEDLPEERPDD
Chain of hA2A (P29274 whole entry): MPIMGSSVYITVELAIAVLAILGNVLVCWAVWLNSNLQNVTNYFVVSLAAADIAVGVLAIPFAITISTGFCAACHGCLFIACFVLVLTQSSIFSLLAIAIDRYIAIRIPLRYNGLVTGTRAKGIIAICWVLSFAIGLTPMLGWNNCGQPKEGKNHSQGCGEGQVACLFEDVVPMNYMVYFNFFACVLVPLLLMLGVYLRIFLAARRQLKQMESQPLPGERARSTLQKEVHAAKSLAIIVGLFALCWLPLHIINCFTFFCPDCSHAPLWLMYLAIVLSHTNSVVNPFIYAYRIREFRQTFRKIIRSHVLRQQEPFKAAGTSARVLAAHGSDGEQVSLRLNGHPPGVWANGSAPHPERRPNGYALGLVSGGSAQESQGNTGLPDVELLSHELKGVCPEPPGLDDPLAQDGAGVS

As for `[2H]C([2H])(F)C([2H])([2H])Oc1ccc(CCCn2ncc3c2nc(N)n2nc(-c4ccco4)nc32)cc1` (single isomer, unassigned) [FLUDA, 7-(3-(4-(2-(fluoro)ethoxy-1,1,2,2-d4)phenyl)propyl)-2-(furan-2-yl)-7H-pyrazolo[4,3-e][1,2,4]triazolo[1,5-c]pyrimidine-5-amine], the Ki – broadly, the equilibrium dissociation constant of an inhibitor or competing ligand from its target – in data set [1] (first determination) was 0.609 nM; in data set [1] (setting [8]), 0.74 ± 0.26 nM; in data set [2] (first determination), 767 nM; in data set [2] (setting [8]), greater than 1000 nM.
As for `Nc1nc2c(cnn2CCCc2ccc(OCC[18F])cc2)c2nc(-c3ccco3)nn12` (single isomer, unassigned) [[^18F]D, 7-(3-(4-(2-([^18F]fluoro)ethoxy)phenyl)propyl)-2-(furan-2-yl)-7H-pyrazolo[4,3-e][1,2,4]triazolo[1,5-c]pyrimidine-5-amine, reference compound], affinity in data set [2] (n=4) was put at a Ki of 203 nM. For the same compound, the figures for the “intact radiotracer in the brain” value in data set [3] (setting [9]) and in data set [3] (setting [10]) were 68% and 71%, respectively. For the same compound, the “intact radiotracer in the plasma” value in data set [3] (setting [9]) stood at 70%; in data set [3] (setting [10]), 41%.
Regarding `[2H]C([2H])([18F])C([2H])([2H])Oc1ccc(CCCn2ncc3c2nc(N)n2nc(-c4ccco4)nc32)cc1` [[^18F]FLUDA, 7-(3-(4-(2-([^18F]fluoro)ethoxy-1,1,2,2-d4)phenyl)propyl)-2-(furan-2-yl)-7H-pyrazolo[4,3-e][1,2,4]triazolo[1,5-c]pyrimidine-5-amine], the “cerebral uptake SUV” value in data set [4] is given as 0.8. For the same compound, the Bmax in data set [5] was 556 ± 143 fmol/mg. Further, in data set [3] (setting [9]), the “intact radiotracer in the brain” value is on record as 93% and the “intact radiotracer in the plasma” value was 79%. In data set [3] (mouse, in vivo), the “metabolic stability compared to 18F-labeled compound D” value is reported as “significantly higher”. Besides, in data set [3] (setting [10]), the “intact radiotracer in the brain” value amounted to 100% and the “intact radiotracer in the plasma” value turned out to be 82%. Also, in data set [6], the “stability in PBS” value is on record as “stable”, the “stability in n-octanol solution” value is given as “stable”, the “stability in porcine plasma” value is listed as “stable” and the “stability in sodium chloride solution” value is “stable”. Further, in data set [7], the “change of the radiotracer by A2A-selective ligands” value is listed as “change of the radiotracer by means of A2A-selective ligands” and the “enrichment of the radiotracer in the target region (striatum)” value is “selective enrichment”.

These data come from US12454536B2, “Deuterated 7-(3-(4-(2-([18F]fluoro)ethoxy)phenyl)propyl)-2-(furan-2-yl)-7H- pyrazolo [4,3-e][1,2,4]triazolo[1,5-C]pyrimidine-5-amine derivatives” (HELMHOLTZ-ZENTRUM DRESDEN-ROSSENDORF E.V., priority 2019, dated 2025).
